Molecular target: T1, estrogen receptor (ERα) (Homo sapiens, UniProt P03372)
T1 construct: endogenous in cells; host or cells: MCF7 cells (ATCC)
T1 sequence (P03372 1-595): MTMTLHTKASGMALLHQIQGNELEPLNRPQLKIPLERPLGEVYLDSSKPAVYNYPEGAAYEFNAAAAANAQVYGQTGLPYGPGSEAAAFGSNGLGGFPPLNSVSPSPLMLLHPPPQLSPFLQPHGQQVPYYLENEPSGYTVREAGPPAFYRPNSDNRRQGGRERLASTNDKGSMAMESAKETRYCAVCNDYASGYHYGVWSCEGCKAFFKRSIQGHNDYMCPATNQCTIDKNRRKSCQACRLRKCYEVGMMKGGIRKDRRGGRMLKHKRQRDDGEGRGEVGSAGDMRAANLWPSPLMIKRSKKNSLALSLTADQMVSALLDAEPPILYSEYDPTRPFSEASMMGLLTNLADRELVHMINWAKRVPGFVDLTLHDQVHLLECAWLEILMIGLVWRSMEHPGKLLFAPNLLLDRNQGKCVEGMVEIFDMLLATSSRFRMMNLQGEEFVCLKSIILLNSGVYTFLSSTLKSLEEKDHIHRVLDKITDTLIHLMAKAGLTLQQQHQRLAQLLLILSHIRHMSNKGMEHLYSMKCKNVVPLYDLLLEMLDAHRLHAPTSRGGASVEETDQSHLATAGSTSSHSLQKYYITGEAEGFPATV
Test: Estrogen receptor degradation activity (ERα in cell western assay, MCF7 breast cancer cells)
Type: cell-based
Conditions: for percent ER degradation at 0.3 µM: 4 hours, relative to fulvestrant (0.1 μM) and DMSO; for DC50: concentration which degrades 50% of the estrogen receptor, 4 hours post compound addition, read-out: Degradation IC50
Method: Test: Estrogen Receptor Degradation Activity
Said test involves measuring the in vitro degradation activity of the compounds of the Table 1a.
The measurements of the degradation activities were made using a breast cancer cell ERα in cell western assay as described hereunder.
MCF7 cells (ATCC) were seeded in 384 wells microplate (collagen coated) at a concentration of 10000 cells/30 μL per well in red phenol free MEM alpha medium (invitrogen) containing 5% charcoal dextran striped FBS. The following day, 9 points serial 1:5 dilution of each compound was added to the cells in 2.5 μL at final concentrations ranging from 0.3-0.0000018 μM (in table 2), or 0.1 μM for fulvestrant (using as positive control). At 4 hours post compound addition the cells were fixed by adding 25 μL of formalin (final concentration 5% formalin containing 0.1% triton) for 10 minutes at room temperature and then washed twice with PBS. Then, 50 μL of LI-COR blocking buffer containing 0.1% Triton was added to plate for 30 minutes at room temperature. LI-COR blocking buffer was removed and cells were incubated overnight at cold room with 50 μL anti-ER rabbit monoclonal antibody (Thermo scientific MA1-39540) diluted at 1:1000 in LI-COR blocking buffer containing 0.1% tween-20. Wells which were treated with blocking buffer but no antibody were used as background control. Wells were washed twice with PBS (0.1% tween-20) and incubated at 37° C. for 60 minutes in LI-COR (0.1% tween-20) containing goat anti-rabbit antibody Alexa 488 (1:1000) and Syto-64 a DNA dye (2 μM final concentration). Cells were then washed 3 times in PBS and scanned in ACUMEN explorer (TTP-Labtech). Integrated intensities in the green fluorescence and red fluorescence were measured to determine the levels of ERα and DNA respectively.
The degradation activity with respect to estrogen receptors in this test is given by the concentration which degrades 50% of the estrogen receptor (or IC50) in nM.
The % of ERα levels decrease were determined as follows: % inhibition=100*(1−(sample−fulvestrant: DMSO−fulvestrant)).

Compound | percent ER degradation at 0.3 µM [%] | DC50 [nM]
Cc1cc(F)cc(C)c1C(=O)c1sc2cc(C(=O)O)ccc2c1Oc1ccc(NC2CN(CCCF)C2)cc1 [Compound 1, 2-(4-fluoro-2,6-dimethylbenzoyl)-3-(4-((1-(3-fluoropropyl)azetidin-3-yl)amino)phenoxy)benzo[b]thiophene-6-carboxylic acid] | 91 | 5
Cc1cc(F)cc(C)c1C(=O)c1sc2cc(C(=O)O)ccc2c1Oc1ccc(OC2CN(CCCF)C2)cc1 [Compound 2, 2-(4-fluoro-2,6-dimethylbenzoyl)-3-(4-((1-(3-fluoropropyl)azetidin-3-yl)oxy)phenoxy)benzo[b]thiophene-6-carboxylic acid] | 92 | 5
Cc1cc(F)cc(C)c1C(=O)c1sc2cc(C(=O)O)ccc2c1Oc1ccc(CC2CN(CCCF)C2)cc1 [Compound 3, 2-(4-fluoro-2,6-dimethylbenzoyl)-3-(4-((1-(3-fluoropropyl)azetidin-3-yl)methyl)phenoxy)benzo[b]thiophene-6-carboxylic acid] | 85 | 3
Cc1cc(F)cc(C)c1C(=O)c1sc2cc(C(=O)O)ccc2c1Oc1ccc(C=C2CN(CCCF)C2)cc1 [Compound 4, 2-(4-fluoro-2,6-dimethylbenzoyl)-3-(4-((1-(3-fluoropropyl)azetidin-3-ylidene)methyl)phenoxy)benzo[b]thiophene-6-carboxylic acid] | 98 | 0.3
Cc1cc(F)cc(C)c1C(=O)c1sc2cc(C(=O)O)ccc2c1Oc1ccc(O[C@H]2CCN(CCCF)C2)cc1 [Compound 5, (S)-2-(4-fluoro-2,6-dimethylbenzoyl)-3-(4-((1-(3-fluoropropyl)pyrrolidin-3-yl)oxy)phenoxy)benzo[b]thiophene-6-carboxylic acid] | 91 | 12
Cc1cc(F)cc(C)c1C(=O)c1sc2cc(C(=O)O)ccc2c1Oc1ccc(N[C@H]2CCN(CCCF)C2)cc1 [Compound 6, (S)-2-(4-fluoro-2,6-dimethylbenzoyl)-3-(4-((1-(3-fluoropropyl)pyrrolidin-3-yl)amino)phenoxy)benzo[b]thiophene-6-carboxylic acid] | 84 | 3

Source: patent publication US20260337184A1, “NOVEL SUBSTITUTED 2-CARBONYL-BENZOTHIOPHENE-6-CARBOXYLIC ACID DERIVATIVES, PROCESSES FOR THEIR PREPARATION AND THERAPEUTIC USES THEREOF” (SANOFI, priority 2022, published 2026)
